In ChEMBL document CHEMBL3886653, “Cytomegalovirus inhibitor compounds” (2016) one finds IC50 data, which are given here for 39 molecules.

The first assay concerns the target T1, DNA polymerase catalytic subunit (Human cytomegalovirus (strain AD169) (HHV-5) (Human herpesvirus 5), UniProt P08546).
T1 sequence (P08546 whole entry): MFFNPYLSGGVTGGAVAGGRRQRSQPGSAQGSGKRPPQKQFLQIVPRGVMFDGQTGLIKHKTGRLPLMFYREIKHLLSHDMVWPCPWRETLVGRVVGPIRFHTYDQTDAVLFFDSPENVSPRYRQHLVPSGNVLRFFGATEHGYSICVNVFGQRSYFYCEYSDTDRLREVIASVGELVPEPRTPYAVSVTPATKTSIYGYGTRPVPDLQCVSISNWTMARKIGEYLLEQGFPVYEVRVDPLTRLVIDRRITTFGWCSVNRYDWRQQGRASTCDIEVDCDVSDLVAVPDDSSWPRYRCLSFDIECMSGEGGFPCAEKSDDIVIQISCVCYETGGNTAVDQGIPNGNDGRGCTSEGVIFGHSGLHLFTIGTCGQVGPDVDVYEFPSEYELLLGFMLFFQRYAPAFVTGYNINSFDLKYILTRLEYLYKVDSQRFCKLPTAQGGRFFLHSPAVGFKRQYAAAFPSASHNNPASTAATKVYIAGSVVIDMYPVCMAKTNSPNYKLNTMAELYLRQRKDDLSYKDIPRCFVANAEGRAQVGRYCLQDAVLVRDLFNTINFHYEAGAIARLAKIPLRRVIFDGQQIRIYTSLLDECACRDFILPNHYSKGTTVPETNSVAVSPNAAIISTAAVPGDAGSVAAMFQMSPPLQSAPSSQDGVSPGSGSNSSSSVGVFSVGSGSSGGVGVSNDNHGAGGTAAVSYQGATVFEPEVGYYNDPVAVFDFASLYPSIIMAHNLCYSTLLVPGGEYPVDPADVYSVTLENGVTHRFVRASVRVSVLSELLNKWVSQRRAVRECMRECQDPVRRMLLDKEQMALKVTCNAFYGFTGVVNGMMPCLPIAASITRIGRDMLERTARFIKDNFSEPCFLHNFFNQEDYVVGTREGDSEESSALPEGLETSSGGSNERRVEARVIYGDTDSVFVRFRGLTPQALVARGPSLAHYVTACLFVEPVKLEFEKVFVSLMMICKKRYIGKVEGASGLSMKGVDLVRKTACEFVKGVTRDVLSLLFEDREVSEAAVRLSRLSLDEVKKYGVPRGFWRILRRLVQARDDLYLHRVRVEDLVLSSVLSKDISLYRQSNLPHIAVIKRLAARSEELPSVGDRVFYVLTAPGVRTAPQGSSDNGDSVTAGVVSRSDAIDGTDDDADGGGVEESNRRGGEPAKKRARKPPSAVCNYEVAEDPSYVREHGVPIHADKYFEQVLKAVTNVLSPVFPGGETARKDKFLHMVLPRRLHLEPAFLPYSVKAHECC
In words: HCMV Polymerase LANCE TR-FRET Assay: The assay conditions are the following: 10 mM HEPES pH 7.5, 25 mM KCl, 7.5 mM NaCl, 5 mM MgCl2, 0.2 mg BSA/mL, 1 mM TCEP, 1.5% glycerol, 5% DMSO, 235 nM dATP, 350 nM dCTP, 350 nM dGTP, 235 nM dTTP, 12 nM biotin-16-dUTP, 23.5 nM Dig-primer/template, 2 nM GST-UL54. The assay volume is 10 μL. Each reagent is added as follow: 4 μL a+3 μL b+3 μL c; a: compound diluted in compound dilution buffer to obtain 12.5% DMSO; b: enzyme (GST-UL54) in 10 mM Hepes pH 7.5, 25 mM KCl, 5 mM MgCl2, 25 mM NaCl, 5% Glycerol, 0.67 mg BSA/mL, 1 mM TCEP w/o DMSO (2 nM GST-UL54 is present in the assay); c: substrate in 10 mM HEPES pH 7.5, 25 mM KCl, 5 mM MgCl2, 1 mM TCEP, 783 nM dATP, 1166 nM dCTP, 1166 nM dGTP, 783 nM dTTP, 40 nM biotin-16-dUTP, 78 nM Dig-primer (5'-/Dig/AGC TCG TTT AGT GAA CC-3')/template (5'-GAGGTCAAAACAGCGTGGATGGCGTCTCCAGGCGATCTGACGGTTCACTAAACGAGCT-3') w/o DMSO. The primer and template are annealed in 10 mM Tris-HCl pH 7.5, 50 mM NaCl at a respective concentration of 50 μM. They are incubated at 95 °C. for 5 min in a dry batch block. The block is removed from the dry bath and allowed to cool to RT. Aliquots are made and stored at −20 °C. To perform the assay, 3 μL of the enzyme solution is added to columns 2-12 and 14-24. The enzyme is substituted by the blank solution (b solution without enzyme) for columns 1 and 13 (blanks). The plate is centrifuged at 200×g for 30 sec. 3 μL of substrate solution is added to each well. The plate is centrifuged at 200×g for 30 sec. Plates are incubated at 37 °C. for 30 min. 5 μL of conjugate solution is added (25 mM Hepes pH 7.5, 0.1 M NaCl, 0.25% Tween-20, 1 mg/mL BSA, 12 mM EDTA, 24 nM Sreptavidin-APC, 342 ng/mL Anti-Dig-Europium). The plates are incubated at RT for at least 120 min. The signal is read on the Envision plate reader (Perkin-Elmer) or equivalent.
Regarding `CN(CC(=O)O)c1ccnc2c1cc(C(=O)NCc1ccc(Cl)cc1)c(=O)n2CC(=O)N1CC(C)(C)C1`, the 50% inhibitory concentration (IC50) is 50 nM. On the same count and under the same terms, the value for `CC1(C)CN(C(=O)Cn2c(=O)c(C(=O)NCc3ccc(Cl)cc3)cc3cc(-c4nn[nH]n4)cnc32)C1` was 30 nM. The same measure, in the same setting: the value for `COc1cc(N)nc2c1cc(C(=O)NCc1ccc(Cl)cc1)c(=O)n2CC(=O)N(C)CC1(CO)COC1` was 22 nM; that for `CC1(F)CN(C(=O)Cn2c(=O)c(C(=O)NCc3ccc(C#N)cc3)cc3cc(-c4c[nH]cn4)cnc32)C1` was 320 nM. Turning to `CN(CC(C)(C)CO)C(=O)Cn1c(=O)c(C(=O)NCc2ccc(Cl)cc2)cc2ccc(-c3cn[nH]c3)nc21`, the IC50 worked out at 1000 nM. Take `Cc1cc(Nc2cnc3c(c2)cc(C(=O)NCc2ccc(Cl)cc2)c(=O)n3CC(=O)N2CC(C)(C)C2)n(C)n1`: the IC50 was found to be 180 nM.

As for `COc1cc(CNC(=O)c2cc3cc(-c4cn(C)cn4)cnc3n(CC(=O)N3CC(C)(F)C3)c2=O)ccc1Cl`, the IC50 came out at 400 nM.

With `CC1(C)CN(C(=O)Cn2c(=O)c(C(=O)NCc3ccc(Cl)cc3)cc3cc(CN4CCNC(C(F)(F)F)C4)cnc32)C1` (centres undefined), the IC50 was 74 nM.

With `CC1CN(C(=O)Cn2c(=O)c(C(=O)NCc3ccc(Cl)cc3)cc3c(-c4cnc(N)nc4)c(-c4cnn(C)c4)cnc32)C1`, the IC50 came to 120 nM. The same measure, in the same setting: the value for `CC1(C)CN(C(=O)Cn2c(=O)c(C(=O)NCc3ccc(Cl)cc3)cc3c(-c4cnc(N)nc4)ccnc32)C1` was 71 nM; that for `Cc1noc(C2CCN(C(=O)Cn3c(=O)c(C(=O)NCc4ccc(Cl)cc4)cc4cccnc43)C2)n1` (centres undefined) was 10000 nM; that for `CC1(C)CN(C(=O)Cn2c(=O)c(C(=O)NCc3ccc(Cl)cc3)cc3cc(C(=O)NCc4cnccn4)cnc32)C1` was 65 nM. On the same count and under the same terms, the value for `COc1c(-c2sc(C)nc2C)cnc2c1cc(C(=O)NCc1ccc(Cl)cc1)c(=O)n2CC(=O)N1CC(C)(C)C1` was 1200 nM. Regarding `CCn1cc(-c2c(O)cnc3c2cc(C(=O)NCc2ccc(Cl)cc2)c(=O)n3CC(=O)N2CC(C)(C)C2)cn1`, the IC50 worked out at 160 nM.

Regarding `Cn1cc(-c2cc3cc(C(=O)NCc4ccc(Cl)cc4)c(=O)n(CC(=O)N4CC(C)(O)C4)c3nc2N)cn1`, the IC50 is 110 nM. As to `Cn1cc(-c2cnc3c(cc(C(=O)NCc4ccc(Cl)cc4)c(=O)n3CC(=O)N3CC(C)(C)C3)c2N2CC(O)C2)cn1`, the IC50 was 180 nM. The same measure, in the same setting: next, `COc1c(-c2cnn(C)c2)cnc2c1cc(C(=O)NCc1ccc(Cl)cc1)c(=O)n2CC(=O)N1CCC(CO)C1` (centres undefined): 140 nM. Same read-out and setting: the value for `CC(=O)NC1CCN(c2cnc3c(c2)cc(C(=O)NCc2ccc(Cl)cc2)c(=O)n3CC(=O)N2CC(C)(C)C2)C1` (centres undefined) was 190 nM; that for `CS(=O)(=O)C1CN(C(=O)Cn2c(=O)c(C(=O)NCc3ccc(Cl)cc3)cc3cccnc32)C1` was 17000 nM.

Take `Cc1nc(-c2cnc3c(c2)cc(C(=O)NCc2ccc(Cl)cc2)c(=O)n3CC(=O)N2CC(C)(C)C2)cn1C`: the IC50 is 130 nM. Same read-out and setting: next, `NC(=O)[C@@H]1C[C@H](F)CN1C(=O)CCn1c(=O)c(C(=O)NCc2ccc(Cl)cc2)cc2cccnc21`: 210 nM; `COCCNc1ccnc2c1cc(C(=O)NCc1ccc(Cl)cc1)c(=O)n2CC(=O)N1CC(C)(C)C1`: 200 nM; `CN(C(=O)Cn1c(=O)c(C(=O)NCc2ccc(Cl)cc2)cc2cccnc21)C1CC(O)C1` (centres undefined): 220 nM. Same read-out and setting: the value for `NCC1CCN(C(=O)Cn2c(=O)c(C(=O)NCc3ccc(Cl)cc3)cc3cccnc32)C1` (centres undefined) was 5600 nM; that for `O=C(NCc1ccc(Cl)cc1)c1cc2cccnc2n(CC(=O)N2CC3(CC3)C2)c1=O` was 280 nM; that for `CC1(C)CN(C(=O)Cn2c(=O)c(C(=O)NCc3ccc(Cl)cc3)cc3c(CCN4CCC4)ccnc32)C1` was 280 nM. As for `CNc1ccc2cc(C(=O)NCc3ccc(Cl)cc3)c(=O)n(CC(=O)N3CC(C)(O)C3)c2n1`, the IC50 was found to be 120 nM. Still for that read-out and setting: next, `Cn1nccc1Cc1cnc2c(c1)cc(C(=O)NCc1ccc(Cl)cc1)c(=O)n2CC(=O)N1CC(C)(C)C1`: 65 nM; `Cn1cnc(-c2cnc3c(c2)cc(C(=O)NCc2ccc(Cl)cc2)c(=O)n3CC(=O)N2CC(C)(F)C2)c1`: 120 nM; `CC1(C)CN(C(=O)Cn2c(=O)c(C(=O)NCc3ccc(Cl)cc3)cc3c(Oc4cccnc4)ccnc32)C1`: 280 nM. Same read-out and setting: the value for `CN(CC(C)(C)CO)C(=O)Cn1c(=O)c(C(=O)NCc2ccc(Cl)cc2)cc2ccc(NC3CC3)nc21` was 970 nM; that for `CC(C)c1ccnc2c1cc(C(=O)NCc1ccc(Cl)cc1)c(=O)n2CC(=O)N1CC(C)(C)C1` was 200 nM. On the same count and under the same terms, next, `Cn1cc(-c2cnc3c(c2)cc(C(=O)NCc2ccc(Cl)cc2)c(=O)n3CC(=O)N2CC(F)(CF)C2)cn1`: 59 nM. In the case of `CC1(C)CN(C(=O)Cn2c(=O)c(C(=O)NCc3ccc(Cl)cc3)cc3c(OC[C@@H]4CCC(=O)N4)ccnc32)C1`, the IC50 is 62 nM.

As for `CC1CN(C(=O)Cn2c(=O)c(C(=O)NCc3ccc(Cl)cc3)cc3cc(OCC4(C#N)CC4)cnc32)C1`, the IC50 is 170 nM. Consider `Cn1cnc(-c2cc3cc(C(=O)NCc4ccc(Cl)cc4)c(=O)n(CC(=O)N4CC(C)(F)C4)c3nc2N)c1`, for which the IC50 turned out to be 77 nM.

The target of another assay is T1, DNA polymerase catalytic subunit. In words: HCMV Polymerase Scintillation Proximity Assay: The assay conditions are the following: 10 mM HEPES pH 7.5, 25 mM KCl, 7.5 mM NaCl, 5 mM MgCl2, 0.2 mg BSA/mL, 1 mM TCEP, 1.5% glycerol, 2 μM dTTP, 90 nM 3H-dTTP (minor variations in concentration are possible due to specific activity of stock), 26 nM Poly(dA)/190 nM BioTEG-dT19; 5% DMSO. The assay volume is 30 μL. Each reagent is added at a 3× conc.: 10 μL a+10 μL b+10 μL c; a: compound diluted in 10 mM Hepes pH 7.5, 25 mM KCl, 5 mM MgCl2, 1 mM TCEP with 15% DMSO; b: enzyme (GST-UL54) in 10 mM Hepes pH 7.5, 25 mM KCl, 5 mM MgCl2, 22.5 mM NaCl, 4.5% Glycerol, 0.6 mg BSA/mL, 1 mM TCEP w/o DMSO (1 nM GST-UL54 is present in the assay); c: substrate in 10 mM Hepes pH 7.5, 25 mM KCl, 5 mM MgCl2, 1 mM TCEP, 6 μM dTTP, 270 nM 3H-dTTP, 78 nM Poly(dA)/570 nM BioTEG-dT19 w/o DMSO. To perform the assay, 10 μL enzyme solution is added to columns 2-12 and 14-24. The enzyme is substituted by the blank solution (b solution without enzyme) for columns 1 and 13 (blanks). The plate is centrifuged at 200×g for 30 sec. 10 μL of substrate solution is added to each well. The plate is centrifuged at 200×g for 30 sec. The plates are incubated at 37 °C. for 40 min. To stop the reaction, 25 μL of SPA beads (5 mg/mL in 0.5 M EDTA) are added and mixed by pipetting up and down. The plates are incubated at RT for at least 15 min. 35 μL of 5 M CsCl is added to the bottom of each well. TopSeal is applied to the plate and the plate is incubated at RT for at least 90 min prior to reading. The signal is read on TopCount plate reader (Perkin-Elmer) or equivalent.
For the molecule `CC1(C)CN(C(=O)Cn2c(=O)c(C(=O)NCc3ccc(Cl)c(Cl)c3)cc3cccnc32)C1`, the IC50 was 14000 nM. Take `CC1(C)CN(C(=O)Cn2c(=O)c(C(=O)NCc3ccc(Cl)c(C(F)(F)F)c3)cc3cccnc32)C1`: the IC50 was 38000 nM.

Consider `O=C(NCc1ccc(Cl)cc1)c1cc2cccnc2n(CC(=O)N2CCCOCC2)c1=O`, for which the IC50 is 16000 nM.
